Columns and labels:
S. stercoralis larvae [1] = assay: Larval tolerance to emulsifiers; format: cell-based
Excerpt: Triton® X-100 (octylphenoxy polyethoxyethanol) is recommended for use as an emulsifier, where necessary. A concentration of 1-4% in 0.01% ELNS had no effect on larval mobility or mortality.
Other suitable surfactants for dispersing plant extracts can be developed by routine testing according to the described procedures.

S. stercoralis larvae [2] = assay: Larval tolerance to methanol (solvent); format: cell-based, Strongyloides stercoralis; conditions: aqueous solutions containing methanol; cumulative percentage mortality
Experimental: Active constituents of plants are typically extracted in organic solvents such as methanol. […] Studies of methanol toxicity for S. stercoralis indicate that a methanol concentration exceeding 5 μg/100 mL LNS (>50 times that detected in plant extracts using NMR analyses) is required to exert any significant effect on larval mortality.

S. stercoralis larvae [3] = assay: Dye exclusion test using eosin to tell live from killed larvae; format: cell-based; conditions: for Percentage of S. stercoralis larvae stained using eosin in vitro: n~100
Experimental: Dye exclusion tests have been used successfully to indicate viability in parasitic platyhelminths, and similar testing can be applied to S. stercoralis larvae. Use of 0.01% v/v eosin in LNS (ELNS) in a dye exclusion test indicated death of larvae in less than 10 minutes, and 0.01-0.03% ELNS had no effect on healthy individuals. The larvae typically survive for more than 100 hours in ELNS. Accordingly, LNS is a preferred medium in which to maintain larvae harvested from multiplication in coproculture and ELNS is a preferred medium for evaluating the effects of physiologically active materials, such as candidate anthelmintic materials, on the larvae. However, the skilled practitioner will recognize that any medium in which the larvae can be maintained for a convenient period of time, and any appropriate vital staining dye, can be used in the method of the invention.
The results of a comparative test to establish the ability of a dye exclusion procedure using eosin to discriminate between live and killed larvae are presented in Table 1 below. FIG. 1 is a photomicrograph of a microscopic inspection field showing a number of larvae of S. stercoralis after exposure to an anthelmintic agent.

Tween® 20
Toxicity to S. stercoralis larvae (S. stercoralis larvae [1]; 0.1-0.4% in 0.1% ELNS): toxic

CO [methanol]
Methanol concentration required to exert any significant effect on larval mortality (S. stercoralis larvae [2]): exceeding 5 μg/100 mL LNS

O=C1OC2(c3ccccc31)c1cc(Br)c(O)c(Br)c1Oc1c2cc(Br)c(O)c1Br [eosin]
Time in which the dye exclusion test indicated death of larvae (S. stercoralis larvae [3]; 0.01% v/v eosin in LNS): less than 10 minutes | Percentage of S. stercoralis larvae stained using eosin in vitro (S. stercoralis larvae [3]; heat killed larvae (60° C./30 min), eosin 0.01% (w/v), 0 min): 0% | Percentage of S. stercoralis larvae stained using eosin in vitro (S. stercoralis larvae [3]; heat killed larvae (60° C./30 min), eosin 0.01% (w/v), 10 min): 100% | Percentage of S. stercoralis larvae stained using eosin in vitro (S. stercoralis larvae [3]; heat killed larvae (60° C./30 min), eosin 0.03% (w/v), 0 min): 0% | Percentage of S. stercoralis larvae stained using eosin in vitro (S. stercoralis larvae [3]; heat killed larvae (60° C./30 min), eosin 0.03% (w/v), 10 min): 100% | Percentage of S. stercoralis larvae stained using eosin in vitro (S. stercoralis larvae [3]; living larvae, eosin 0.01% (w/v), 0 min): 0% | Percentage of S. stercoralis larvae stained using eosin in vitro (S. stercoralis larvae [3]; living larvae, eosin 0.01% (w/v), 10 min): 1% | Percentage of S. stercoralis larvae stained using eosin in vitro (S. stercoralis larvae [3]; living larvae, eosin 0.01% (w/v), 20 min): 1% | Percentage of S. stercoralis larvae stained using eosin in vitro (S. stercoralis larvae [3]; living larvae, eosin 0.01% (w/v), 30 min): 2% | Percentage of S. stercoralis larvae stained using eosin in vitro (S. stercoralis larvae [3]; living larvae, eosin 0.01% (w/v), 40 min): 2% | Percentage of S. stercoralis larvae stained using eosin in vitro (S. stercoralis larvae [3]; living larvae, eosin 0.01% (w/v), 50 min): 2% | Percentage of S. stercoralis larvae stained using eosin in vitro (S. stercoralis larvae [3]; living larvae, eosin 0.01% (w/v), 60 min): 2% | Percentage of S. stercoralis larvae stained using eosin in vitro (S. stercoralis larvae [3]; living larvae, eosin 0.01% (w/v), column headed only "(min)", after 60): 2% | Percentage of S. stercoralis larvae stained using eosin in vitro (S. stercoralis larvae [3]; living larvae, eosin 0.03% (w/v), 0 min): 0% | Percentage of S. stercoralis larvae stained using eosin in vitro (S. stercoralis larvae [3]; living larvae, eosin 0.03% (w/v), 10 min): 1% | Percentage of S. stercoralis larvae stained using eosin in vitro (S. stercoralis larvae [3]; living larvae, eosin 0.03% (w/v), 20 min): 1% | Percentage of S. stercoralis larvae stained using eosin in vitro (S. stercoralis larvae [3]; living larvae, eosin 0.03% (w/v), 30 min): 2% | Percentage of S. stercoralis larvae stained using eosin in vitro (S. stercoralis larvae [3]; living larvae, eosin 0.03% (w/v), 40 min): 2% | Percentage of S. stercoralis larvae stained using eosin in vitro (S. stercoralis larvae [3]; living larvae, eosin 0.03% (w/v), 50 min): 2% | Percentage of S. stercoralis larvae stained using eosin in vitro (S. stercoralis larvae [3]; living larvae, eosin 0.03% (w/v), 60 min): 2% | Percentage of S. stercoralis larvae stained using eosin in vitro (S. stercoralis larvae [3]; living larvae, eosin 0.03% (w/v), column headed only "(min)", after 60): 3%

octylphenoxy polyethoxyethanol [Triton® X-100]
Effect on larval mobility (S. stercoralis larvae [1]; 1-4% in 0.01% ELNS): no effect | Effect on larval mortality (S. stercoralis larvae [1]; 1-4% in 0.01% ELNS): no effect

Source: US20050002947A1, “In vitro bioassay employing laboratory-cultured larvae of strongyloides stercoralis” (University of the West Indies, priority 2003, published 2005)
